These results are taken from US20090099158A1, “TETRAHYDROISOQUINOLINE COMPOUNDS AS MODULATORS OF THE HISTAMINE H3 RECEPTOR” (priority 2007, published 2009).

Experiment [1] addresses T1, cloned human H3 receptors (Homo sapiens, UniProt Q9Y5N1).
T1 construct: expressed in transfected cells; host or cells: SK-N-MC cells
Description: H3 Receptor Binding (Human). The conditions noted are these: cloned human H3 receptors stably expressed in SK-N-MC cells; average of the results obtained. How it is done:
Binding of compounds to the cloned human H3 receptors, stably expressed in SK-N-MC cells, was performed as described by Barbier, A. J. et al. (Br. J. Pharmacol. 2004, 143(5), 649-661). Data for compounds tested in this assay are presented in Table 1 as an average of the results obtained.

Another experiment has as its target T2, human H3 receptor (Homo sapiens, UniProt Q9Y5N1).
T2 construct: expressed in transfected cells; host or cells: SK-N-MC sublines with reporter construct
The experiment is described as follows: Cyclic AMP Accumulation (human H3 receptor). It counts as cell-based. The conditions noted are these: SK-N-MC cells expressing a reporter construct and the human H3 receptor; average; read-out: Human pA2 (converted). From the text:
(§1) Sublines of SK-N-MC cells were created that expressed a reporter construct and either the human or rat H3 receptor. The pA2 values were obtained as described by Barbier et al. (2004). Data for compounds tested in these assays are presented in Table 3, as an average of the results obtained (NT=not tested).

Experiment [2] addresses T3, Rat H3 (Rattus norvegicus, UniProt Q9QYN8). Description: Cyclic AMP Accumulation (rat H3 receptor). It counts as cell-based. Further details: expressed in transfected cells; host or cells: SK-N-MC sublines with reporter construct. The conditions noted are these: SK-N-MC cells expressing a reporter construct and the rat H3 receptor; average; read-out: Rat pA2 (converted).
Description: as §1

For experiment [3], the target named is T3, Rat H3. The experiment is described as follows: H3 Receptor Binding (Rat). Further details: A rat brain without cerebellum (Zivic Laboratories Inc., Pittsburgh, Pa.) was homogenized; tissue Zivic Laboratories Inc; host or cells: rat brain without cerebellum (membranes). The conditions noted are these: rat brain (without cerebellum) membranes; 0.8 nM N-[3H]-α-methylhistamine, 60 min at 25° C.; IC50 converted to Ki; average. How it is done:
A rat brain without cerebellum (Zivic Laboratories Inc., Pittsburgh, Pa.) was homogenized in 50 mM Tris-HCl/5 mM EDTA and centrifuged at 1,000 rpm for 5 min. The supernatant was removed and recentrifuged at 15,000 rpm for 30 min. Pellets were rehomogenized in 50 mM Tris/5 mM EDTA (pH 7.4). Membranes were incubated with 0.8 nM N-[^3H]-α-methylhistamine plus/minus test compounds for 60 min at 25° C. and harvested by rapid filtration over GF/C glass fiber filters (pretreated with 0.3% polyethylenimine) followed by four washes with buffer. Nonspecific binding was defined in the presence of 100 μM histamine. Inhibitory concentration (responsible for 50% inhibition of maximal effect, IC50) values were determined by a single site curve-fitting program (GraphPad, San Diego, Calif.) and converted to Ki values based on a N-[^3H]-α-methylhistamine dissociation constant (Kd) of 0.8 nM. Data for compounds tested in this assay are presented in Table 2 as an average of the results obtained.

pKi: −log10 of the molar value.

T1 sequence (Q9Y5N1 whole entry): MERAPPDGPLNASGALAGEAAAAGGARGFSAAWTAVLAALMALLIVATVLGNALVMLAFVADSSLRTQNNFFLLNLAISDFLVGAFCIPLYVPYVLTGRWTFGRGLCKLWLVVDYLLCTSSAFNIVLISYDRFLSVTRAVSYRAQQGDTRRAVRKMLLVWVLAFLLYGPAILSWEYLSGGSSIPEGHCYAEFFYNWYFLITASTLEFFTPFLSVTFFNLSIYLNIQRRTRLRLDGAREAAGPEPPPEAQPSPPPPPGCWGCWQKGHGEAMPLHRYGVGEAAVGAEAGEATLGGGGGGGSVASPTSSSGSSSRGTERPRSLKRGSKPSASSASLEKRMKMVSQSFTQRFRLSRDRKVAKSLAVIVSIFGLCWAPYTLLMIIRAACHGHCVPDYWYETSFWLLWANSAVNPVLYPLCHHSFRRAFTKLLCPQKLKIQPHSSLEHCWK
T2 sequence (Q9Y5N1 whole entry): as above
T3 sequence (Q9QYN8 whole entry): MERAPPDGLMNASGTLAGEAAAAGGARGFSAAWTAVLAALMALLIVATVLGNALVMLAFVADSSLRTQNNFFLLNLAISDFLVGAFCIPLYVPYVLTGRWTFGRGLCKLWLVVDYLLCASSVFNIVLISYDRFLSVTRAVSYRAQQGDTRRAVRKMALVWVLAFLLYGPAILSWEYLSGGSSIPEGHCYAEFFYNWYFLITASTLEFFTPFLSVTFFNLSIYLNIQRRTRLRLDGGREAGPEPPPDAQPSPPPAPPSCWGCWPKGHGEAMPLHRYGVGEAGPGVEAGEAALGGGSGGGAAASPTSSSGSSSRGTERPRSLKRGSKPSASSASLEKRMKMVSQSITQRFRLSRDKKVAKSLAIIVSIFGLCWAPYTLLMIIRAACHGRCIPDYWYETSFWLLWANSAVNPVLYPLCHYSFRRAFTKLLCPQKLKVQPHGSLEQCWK

For `CC(C)N1CCCN(C(=O)c2ccc3c(c2)CCNC3)CC1` [Example 5, (4-Isopropyl-[1,4]diazepan-1-yl)-(1,2,3,4-tetrahydro-isoquinolin-6-yl)-methanone], in experiment [1], the pKi (commonly the Ki on a negative log10 scale, so that one unit is a factor of ten) is 8.52. Also, the Kb at human H3 receptor was 1.55 nM; on Rat H3 [2] it was 15.8 nM.
`CC(C)N1CCCN(C(=O)c2ccc3c(c2)CCN(Cc2ccccc2)C3)CC1` [Example 11, (2-Benzyl-1,2,3,4-tetrahydro-isoquinolin-6-yl)-(4-isopropyl-[1,4]diazepan-1-yl)-methanone] had a pKi in experiment [1] of 9.00. The Kb on human H3 receptor is 0.661 nM; on Rat H3 [2], 4.47 nM.
In the case of `O=C(c1ccc2c(c1)CCN(Cc1ccccc1)C2)N1CCN(C2CCC2)CC1` [Example 18, (2-Benzyl-1,2,3,4-tetrahydro-isoquinolin-6-yl)-(4-cyclobutyl-piperazin-1-yl)-methanone], the values for the pKi (in experiment [1]; on Rat H3 [3]) were 8.30 and 8.70, respectively. Besides, the Kb at human H3 receptor is 1.29 nM; on Rat H3 [2] it was 2.4 nM.
In the case of `CC(C)N1CCN(C(=O)c2ccc3c(c2)CCN(Cc2ccc(Cl)cc2)C3)CC1` [Example 22, [2-(4-Chloro-benzyl)-1,2,3,4-tetrahydro-isoquinolin-6-yl]-(4-isoproplyl-piperazin-1-yl)-methanone], the pKi in experiment [1] is 8.30. In addition, the Kb at human H3 receptor was 10.5 nM; at Rat H3 [2], 30.9 nM.
For the molecule `O=C(c1ccc2c(c1)CCN(C(=O)C1CCCC1)C2)N1CCN(C2CCC2)CC1` [Example 32, [6-(4-Cyclobutyl-piperazine-1-carbonyl)-3,4-dihydro-1H-isoquinolin-2-yl]-cyclopentyl-methanone], the pKi was 8.30 in experiment [1] and 6.87 on Rat H3 [3]. Also, the results for the Kb at human H3 receptor and on Rat H3 [2] were 8.51 nM and 15.1 nM, respectively.
Take `O=C(c1ccc2c(c1)CCN(C(=O)c1ccccc1)C2)N1CCCN(C2CCC2)CC1` [Example 35, [6-(4-Cyclobutyl-[1,4]diazepane-1-carbonyl)-3,4-dihydro-1H-isoquinolin-2-yl]-phenyl-methanone]: in experiment [1], the pKi was 9.00. In addition, the Kb is 0.513 nM at human H3 receptor and 2.34 nM on Rat H3 [2].
Take `O=C(c1ccc2c(c1)CN(C(=O)c1ccccc1)CC2)N1CCCN(C2CCC2)CC1` [Example 36, [7-(4-Cyclobutyl-[1,4]diazepane-1-carbonyl)-3,4-dihydro-1H-isoquinolin-2-yl]-phenyl-methanone]: in experiment [1], the pKi was 9.00. Besides, the Kb is 0.49 nM on human H3 receptor and 3.8 nM on Rat H3 [2].
For `O=C(c1ccc2c(c1)CCN(C(=O)C1CCCC1)C2)N1CCCN(C2CCC2)CC1` [Example 39, [6-(4-Cyclobutyl-[1,4]diazepane-1-carbonyl)-3,4-dihydro-1H-isoquinolin-2-yl]-cyclopentyl-methanone], the pKi in experiment [1] was 9.00. Also, the Kb was 0.38 nM at human H3 receptor and 3.02 nM at Rat H3 [2].
The molecule `O=C(c1ccc2c(c1)CCN(C(=O)C1CCCCC1)C2)N1CCCN(C2CCC2)CC1` [Example 40, [6-(4-Cyclobutyl-[1,4]diazepane-1-carbonyl)-3,4-dihydro-1H-isoquinolin-2-yl]-cyclohexyl-methanone] had a pKi in experiment [1] of 9.00. For the same molecule, the values for the Kb at human H3 receptor and on Rat H3 [2] were 0.355 nM and 2.88 nM, respectively.
`CCC(=O)N1CCc2cc(C(=O)N3CCC[C@H]3CN3CCCC3)ccc2C1` [Example 45, (S)-1-[6-(2-Pyrrolidin-1-ylmethyl-pyrrolidine-1-carbonyl)-3,4-dihydro-1H-isoquinolin-2-yl]-propan-1-one] showed a pKi in experiment [1] of 8.22. The Kb on human H3 receptor was 2.82 nM; at Rat H3 [2], 20.4 nM.
As to `CCCC(=O)N1CCc2cc(C(=O)N3CCC[C@H]3CN3CCCC3)ccc2C1` [Example 46, (S)-1-[6-(2-Pyrrolidin-1-ylmethyl-pyrrolidine-1-carbonyl)-3,4-dihydro-1H-isoquinolin-2-yl]-butan-1-one], the pKi in experiment [1] was 8.40. Further, the Kb on human H3 receptor was 2.82 nM; on Rat H3 [2], 18.2 nM.
